Entries after “also recorded” stand apart in the source; their conditions may differ.
Columns and labels:
tau isoform 2N4R = target: T1, tau isoform 2N4R (Homo sapiens, UniProt P10636); experiment: PICUP cross-linking assay of tau oligomer formation; assay type: biochemical
T1 construct: made in house; host or cells: E. coli BL21(DE3)
Experimental: Chemical and peptide source. DMSO and thioflavin-T (ThT) were purchased from Alfa Aesar (Ward Hill, MA). Procuration of recombinant α-syn was from rPeptide (WatKinsville, GA). The recombinant p-tau isoform 1N4R was prepared as published previously.^31, 36 Concerning the preparation of tau 2N4R, bacterial expression plasmid consisting of the vector pRK172 carrying a cDNA encoding the human Tau 2N4R isoform was a kind gift of Dr. David Eliezer (Weill Cornell Medicine). For protein expression, E. coli BL21(DE3) cells were transformed with the plasmid and grown in LB media supplemented with ampicillin (100 μg/mL). Protein over-expression was induced by the addition of 1 mM IPTG for 4 h at 37° C., and cells were pelleted by centrifugation at 6,000 g for 15 min at 4° C. The cells were resuspended in lysis buffer (20 mM MES, 400 mM NaCl, 0.2 mM MgCl2, 1 mM EGTA, protease inhibitor cocktail (P8340, Sigma Aldrich), 0.25 mg/mL lysozyme, and 1 μg/mL DNase I, pH 6.8) and lysed by a French press cell disruptor at 4° C., and the lysate was boiled for 20 min. Denatured proteins were pelleted by centrifugation at 30,000 g for 30 min at 4° C., and the supernatant was dialyzed overnight against cation exchange buffer (20 mM MES, 50 mM NaCl, 1 mM MgCl2, 1 mM EGTA, 2 mM DTT, 0.1 mM PMSF, pH 6.8). The dialysate was loaded onto a HiPrep SP HP column, and proteins were eluted with a linear gradient ranging from 50 mM to 1 M NaCl. Fractions containing tau isoform 2N4R were pooled, and the resulting protein solution was dialyzed against PBS (pH 7.4) and stored at −80° C.
PICUP is a technique in which oligomer formation is induced by cross-linking. To induce oligomerization by cross-linking, α-syn (from Rpeptide, LLC) and tau isoform 2N4R were diluted in 10 mM phosphate buffer (pH 7.4) to reach a final concentration of 10 μM. Different compounds were added to the protein solution at a final concentration of 50 μM, resulting in a molar ratio of 1:5. […]

[1] = test system: paired helical filaments isolated from AD brains; experiment: Ex vivo disaggregation of paired helical filaments (TEM); design: species or system human; conditions: compound 50 μM, 120 hours at 37° C., vs 1.5% DMSO
Source text: Amyloid-β plaques were purified from postmortem human AD brains obtained from patients diagnosed with advanced Alzheimer's (Braak stage V or VI) (Tissue Biobank at Case Western Reserve University-Cleveland Clinic) using ultracentrifugation with a sucrose gradient and cell sorting, as previously published.^38-39 Purified amyloid-β plaques were examined with polarized and fluorescence microscopy (Congo Red and Thioflavin-S staining) and scanning electron microscopy. Each aliquot of amyloid-β plaques was solubilized with 60 μL of 10 mM PBS buffer (pH 7.4). One extraction consisted of 0.28 mg/ml of protein, as measured with nanodrop (A260/280 nm). A volume of 20 μL of extraction was incubated with 1.5% DMSO (control) or compound 10 (50 μM) for 120 hours at 37° C. prior to visualization by transmission electron microscopy.
The protein quantification of the plaques isolated from AD brains were measured with nanodrop. […] Compound 10 was tested at 50 μM based on the protein levels and results obtained with PICUP experiments (FIG. 7). AP-plaque samples were incubated with 1.5% DMSO (control) or compound 10 (50 μM) in 10 mM PBS buffer (pH 7.4) for 120 hours at 37° C. prior to visualization by transmission electron microscopy. During the visualization of the grids, several paired helical filaments were observed.

α-syn = target: T2, α-syn (Homo sapiens, UniProt P37840); experiment: Transmission electron microscopy (TEM) of α-syn fibrils; assay type: biochemical; conditions: protein 60 μM, compound 600 μM (1:10), 24 hours at 37° C.
T2 construct: purchased rPeptide
Experimental: To confirm the general anti-fibrillar effect of compound 10, transmission electron microscopy (TEM) was used as an orthogonal assay. After incubating recombinant proteins (at 60 μM) with 600 μM compound 10 for 24 hours at 37° C., TEM was utilized to detect fibril formation.^32 A volume of 10 μL was applied on a 400-mesh Formvar-carbon-coated copper grid (Electron Microscopy Sciences, Hatfield, PA). The grids were incubated for 1 minute and washed three times with distilled water. They were carefully air-dried and incubated for 1 minute in a fresh solution of 1% uranyl acetate. Samples were air-dried and observed using a transmission microscope. Visualization of the grids was performed with transmission electron microscopy (JEOL 1400 Flash, Japan). Acquisition of pictures was performed with the following settings: accelerating voltage of 100 kV and magnification of 40k.

T1 sequence (P10636 1-441 isoform P10636-8): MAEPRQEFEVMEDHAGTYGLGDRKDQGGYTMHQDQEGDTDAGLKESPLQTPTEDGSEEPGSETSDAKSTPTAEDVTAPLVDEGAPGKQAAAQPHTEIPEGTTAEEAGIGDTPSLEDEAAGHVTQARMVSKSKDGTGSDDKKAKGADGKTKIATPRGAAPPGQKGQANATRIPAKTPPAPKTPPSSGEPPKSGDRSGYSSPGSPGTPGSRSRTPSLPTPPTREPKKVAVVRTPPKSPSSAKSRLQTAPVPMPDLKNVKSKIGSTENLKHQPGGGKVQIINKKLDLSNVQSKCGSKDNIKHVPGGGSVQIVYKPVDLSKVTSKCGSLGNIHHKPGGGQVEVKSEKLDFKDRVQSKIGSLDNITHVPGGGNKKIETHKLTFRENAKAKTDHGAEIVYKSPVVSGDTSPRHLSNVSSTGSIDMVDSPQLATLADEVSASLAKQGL

## c1cc(Nc2ncnc(Nc3cccc4[nH]ccc34)n2)c2cc[nH]c2c1 [Compound 10, N2,N4-bis(1H-indol-4-yl)-1,3,5-triazine-2,4-diamine]
Tau isoform 2N4R; compound 50 μM, high molecular weight oligomers around 190 kDa
  tau oligomer formation (PICUP, in words): inhibited both α-syn and tau oligomer formation
Tau isoform 2N4R; compound 3.125 to 50 μM
  tau isoform 2N4R oligomerization at different concentrations (PICUP): effective in reducing oligomerization of α-syn and tau isoform 2N4R in a dose-dependent manner
[1]
  disaggregation of paired helical filaments (TEM, in words): shorter paired helical filaments; also recorded: disaggregated human Aβ plaques and NFTs
α-syn
  α-syn fibril ultrastructure (TEM): a range of shorter fibrils to amorphous protein; also recorded: rare short fibrils

— US20260285847A1, “SYMMETRIC AMINOINDOLE-LINKED TRIAZINE FOR A DUAL EFFECT ON ALPHA-SYNUCLEIN AND TAU ISOFORM 2N4R FIBRILLIZATION” (Purdue Research Foundation, priority 2023, published 2026)
